From patent US10000790B2, “Materials and methods for rapid visualization of NAD(P)H” (THE FLORIDA INTERNATIONAL UNIVERSITY BOARD OF TRUSTEES, priority 2015, dated 2018)

Legend:
[1] = system: glucose dehydrogenase (GDH); assay: Inhibition of GDH-driven NADH production read out on the paper-based AuNP device; type: biochemical, Pseudomonas sp.
Experimental: (§1) To test the inhibitory effects of Hg(II), different concentrations of Hg(II) was incubated with 0.1 U GDH for 10 min in the presence of 10 mM of glucose and 0.1 M of phosphate buffer solution (pH 7.4) at 25 ° C., then 6 mM of NAD' was added to initiate the enzymatic reaction for […]. The kinetics of the reaction was monitored for the first 6 minutes in a microplate reader to calculate the enzyme's activity. 10 μL of the enzymatic reaction solution were added to 90 μL of 400 μM Au^3+-CTAB solution, and 25 μL of this solution was applied to the device test zone.
The colorimetric results were visualized after 4 minutes and evaluated for the inhibitory effects of these metals by measuring the decrease in the color intensity produced by the enzyme-substrate reaction. Ag(I) and Pb(II) were also tested as potential inhibitors in a similar fashion. Intensity analysis was performed using the ImageJ software.
Clearly, the GDH inhibition and AuNPs dissolution was increased with increasing Hg(II) concentration, with complete dissolution of AuNPs in the testing zone at a Hg(II) ion concentration of 100 μM (FIG. 6B, Hg(II)).
(§2) The resulting solution was then added into a 400 μM of Au^3+-CTAB solution, and 25 μL of this mixture were immediately applied to the testing zone. In the absence of Hg(II), GDH fully converted NAD^+ into NADH after 4 minutes, completely inhibiting AuNP dissolution and leaving the testing zone dark red (FIG. 17A). […] GDH-mediated production of NADH decreased in parallel with the increase of Hg(II) concentration, yielding a lighter readout as increased dissolution of AuNPs occurred (FIG. 17A). […] The color intensity was measured with the ImageJ software and the normalized intensity with different concentrations of Hg(II) was plotted (FIG. 17B). The kinetics of GDH in homogeneous solution was also monitored with or without Hg(II) ions (FIG. 18). Enzyme activity was calculated based on the kinetics of the enzymatic reaction and defined as 100% in the absence of Hg(II).

GDH = conditions: reference 43; cited from earlier work
[2] = biological target: glucose dehydrogenase (GDH); assay: GDH activity in homogeneous solution, absorbance change at 340 nm; type: biochemical, Pseudomonas sp.; conditions: Hg(II) 0-200 μM, activity 100% without Hg(II), read-out: IC50 for inhibition of GDH in homogeneous solution
Experimental: The absorbance change at 340 nm was monitored to calculate enzyme activity. Hg(II) concentrations being tested ranged from 0-200 μM. The enzyme's activity was defined as 100% in the absence of the Hg(II) ion, and as the Hg(II) concentration increased the enzyme's activity decreased.
as §1, with “10 μL of the enzymatic reaction solution were added to 90 μL of 400 μM Au^3+-CTAB solution, and 25 μL of this solution was applied to the device test zone.” left out
as §2, with “zone.” for “zone. In the absence of Hg(II), GDH fully converted NAD^+ into NADH after 4 minutes, completely inhibiting AuNP dissolution and leaving the testing zone dark red (FIG. 17A).”

lead(II) acetate trihydrate [Pb(II)]
inhibitory effect on GDH ([1]; 20 to 100 μM of the ion, no dissolution of AuNPs observed): no inhibitory effect | inhibitory effect on GDH (literature) (GDH): no inhibitory effect

O=[N+]([O-])[O-].[Ag+] [Ag(I), silver nitrate]
activity of GDH ([1]; 20 μM or higher of the ion, completely white readout): completely inhibited | inhibitory effect on GDH (literature) (GDH): strong inhibitors

CC(=O)[O-].CC(=O)[O-].[Hg+2] [Hg(II), mercury(II) acetate]
enzyme activity ([1]; 2.5 μM of the ion, small decrease of color intensity): slightly inhibited | inhibition of AuNPs dissolution ([1]; 20 μM of the ion): approximately 30% | GDH activity ([1]; 20 μM of the ion, light pink color): significantly inhibited | inhibition of GDH ([1]; 100 μM of the ion, completely white readout, complete dissolution of AuNPs): complete inhibition | IC50 ([1]; 0.1 U GDH, 0-200 μM Hg(II), 400 μM Au3+-CTAB, 4-min reaction, ImageJ intensity): 20 µM | IC50 [2]: 18 µM | inhibitory effect on GDH (literature) (GDH): strong inhibitors
